The values below come from EP3974434B1, “MACROLIDE DERIVATIVES, PREPARATION METHOD AND APPLICATION THEREOF” (Zhejiang Hisun Pharmaceutical Co., Ltd., priority 2019, dated 2020).

By IC50 is commonly meant the concentration that gives 50% inhibition. Higher therefore signals weaker potency.

One assay deals with BAF3 LMNA-TRKA^G595R. The assay can be described thus: Cell proliferation assay (CellTiter-Glo), BAF3 LMNA-TRKA G595R. The assay is classed as cell-based. The settings on record: Mus musculus, 72 hours.
In assay [1] the test system is KARPAS-299 (human anaplastic large cell lymphoma cell). The assay can be described thus: Cell proliferation assay (CellTiter-Glo), KARPAS-299. The settings on record: 72 hours, NPM-ALK fusion. The assay is classed as cell-based. From the text:
The following method was used to determine the effects of the compounds of the present invention on cell proliferation. H2228 cells (containing EML4-ALK fusion) were purchased from Cell Resource Center of Shanghai Institutes for Biological Sciences, Chinese Academy of Sciences. KARPAS-299 cells (containing NPM-ALK fusion) were purchased from Nanjing COBIOER Biotechnology Co., Ltd. The above two cell lines were used to determine the inhibition of the compounds on cell activities. The cells were cultured in an RPMI 1640 medium containing 10% fetal bovine serum, 100 U penicillin, 100 µg/mL streptomycin, and 1 mM Sodium Pyruvate. The cells were cultured in a 5% CO2 incubator at 37°C. The activity of the cells was determined by CellTiter-Glo® Luminescent Cell Viability Assay kit (Promega, article number: G7573).
(§1) The experimental methods were operated according to the steps in the kit instruction, and were briefly described as follows: a test compound was first dissolved in DMSO to prepare a storage solution, and then diluted in gradient with the corresponding cell culture medium to prepare a test sample. […] After the culture, 50 µL of CellTiter-Glo detection solution was added to each well, shaken for 5 minutes, and then stood for 10 minutes, and the luminescence values of each well were read on the microplate reader using a Luminance mode. […]
(In general: ATP-based viability assays read luminescence as a measure of living cells.)

The target in the next assay is T1, ROS1 (Homo sapiens, UniProt P08922).
T1 construct: purchased SignalChem R14-11G-10
T1 sequence (P08922 28-2347): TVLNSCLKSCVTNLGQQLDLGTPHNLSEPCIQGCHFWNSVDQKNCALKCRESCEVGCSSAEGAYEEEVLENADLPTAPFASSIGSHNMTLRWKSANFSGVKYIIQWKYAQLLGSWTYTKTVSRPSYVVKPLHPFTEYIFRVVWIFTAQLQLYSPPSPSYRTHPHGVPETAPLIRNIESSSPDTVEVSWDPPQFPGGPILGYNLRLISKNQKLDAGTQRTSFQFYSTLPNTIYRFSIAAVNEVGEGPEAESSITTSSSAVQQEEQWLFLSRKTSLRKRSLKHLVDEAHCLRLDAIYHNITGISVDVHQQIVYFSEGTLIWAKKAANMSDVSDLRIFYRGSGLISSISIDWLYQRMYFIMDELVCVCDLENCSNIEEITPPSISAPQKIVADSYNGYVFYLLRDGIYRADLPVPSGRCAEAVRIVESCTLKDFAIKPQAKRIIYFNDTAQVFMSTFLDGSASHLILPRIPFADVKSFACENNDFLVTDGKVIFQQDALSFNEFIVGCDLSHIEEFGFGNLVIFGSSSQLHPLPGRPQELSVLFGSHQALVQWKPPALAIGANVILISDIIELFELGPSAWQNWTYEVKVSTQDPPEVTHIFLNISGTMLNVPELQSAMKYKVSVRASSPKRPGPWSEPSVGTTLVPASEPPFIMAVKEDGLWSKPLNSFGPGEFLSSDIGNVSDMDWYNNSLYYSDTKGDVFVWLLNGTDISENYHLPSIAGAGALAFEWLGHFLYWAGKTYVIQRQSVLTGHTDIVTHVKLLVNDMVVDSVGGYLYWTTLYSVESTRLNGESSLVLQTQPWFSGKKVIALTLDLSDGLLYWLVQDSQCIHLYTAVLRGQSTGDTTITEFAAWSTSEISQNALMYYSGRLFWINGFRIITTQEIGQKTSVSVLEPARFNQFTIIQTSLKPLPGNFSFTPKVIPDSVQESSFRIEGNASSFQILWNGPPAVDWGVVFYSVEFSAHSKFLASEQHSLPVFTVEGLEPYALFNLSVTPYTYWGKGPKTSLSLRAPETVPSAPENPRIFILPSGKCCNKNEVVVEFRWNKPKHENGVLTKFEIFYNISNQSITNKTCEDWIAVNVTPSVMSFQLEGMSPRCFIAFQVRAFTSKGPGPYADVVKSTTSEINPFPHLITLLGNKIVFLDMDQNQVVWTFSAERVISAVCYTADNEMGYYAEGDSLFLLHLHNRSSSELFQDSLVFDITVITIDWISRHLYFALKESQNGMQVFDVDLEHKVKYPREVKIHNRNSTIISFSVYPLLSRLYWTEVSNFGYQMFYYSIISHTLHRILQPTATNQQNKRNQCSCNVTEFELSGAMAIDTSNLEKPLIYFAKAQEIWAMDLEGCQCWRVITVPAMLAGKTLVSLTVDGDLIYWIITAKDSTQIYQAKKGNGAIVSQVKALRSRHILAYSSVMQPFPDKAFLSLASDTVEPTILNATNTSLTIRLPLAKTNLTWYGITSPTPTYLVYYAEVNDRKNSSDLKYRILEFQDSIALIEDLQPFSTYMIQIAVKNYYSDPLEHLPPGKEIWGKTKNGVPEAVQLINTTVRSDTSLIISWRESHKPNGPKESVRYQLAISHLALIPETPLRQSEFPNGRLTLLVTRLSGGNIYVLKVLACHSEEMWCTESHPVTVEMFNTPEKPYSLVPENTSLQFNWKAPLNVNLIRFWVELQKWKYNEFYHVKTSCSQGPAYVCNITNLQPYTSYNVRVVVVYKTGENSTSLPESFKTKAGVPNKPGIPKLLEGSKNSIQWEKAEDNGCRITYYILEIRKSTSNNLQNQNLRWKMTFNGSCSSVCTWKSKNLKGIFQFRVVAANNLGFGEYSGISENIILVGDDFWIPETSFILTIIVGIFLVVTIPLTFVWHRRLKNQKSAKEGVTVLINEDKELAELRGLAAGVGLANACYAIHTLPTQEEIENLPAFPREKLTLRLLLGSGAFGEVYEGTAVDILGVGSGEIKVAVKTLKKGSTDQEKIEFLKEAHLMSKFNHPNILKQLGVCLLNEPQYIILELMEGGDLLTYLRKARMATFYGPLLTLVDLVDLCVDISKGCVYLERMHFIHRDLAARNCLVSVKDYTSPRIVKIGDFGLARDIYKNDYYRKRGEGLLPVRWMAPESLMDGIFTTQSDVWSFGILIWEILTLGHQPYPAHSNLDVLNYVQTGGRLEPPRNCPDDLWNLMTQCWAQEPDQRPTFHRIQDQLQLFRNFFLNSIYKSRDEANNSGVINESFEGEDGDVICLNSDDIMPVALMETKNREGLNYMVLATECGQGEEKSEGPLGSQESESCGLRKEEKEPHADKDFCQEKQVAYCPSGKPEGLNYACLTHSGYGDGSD
The assay can be described thus: HTRF KinEASE-TK kinase activity inhibition assay, ROS1. Conditions: ATP 1 µM. It counts as biochemical. From the text: The following method was used to determine the inhibition degrees of the compounds of the present invention on the activity of recombinant human ROS1 kinase in vitro. In this method, HTRF®KinEASE-TK tyrosine kinase kit (article No. 62TK0PEB) of Cisbio company was used, the principle of the kit was based on time-resolved fluorescence resonance energy transfer (TF-FRET), and the inhibition of the compounds on the activity of the ROS1 kinase was reflected by determining a phosphorylation degree of a biotinylated polypeptide substrate mediated by ROS1 kinase. For detailed experimental operation, please refer to the kit instruction. […]
The experimental flow was briefly described as follows: a test compound was first dissolved in DMSO to prepare a storage solution, and then diluted in gradient with a buffer provided in the kit. […] An ATP Km value concentration of each ROS1 protein was determined by using an ATP solution diluted in gradient (Sangon Biotech (Shanghai) Co., Ltd., A600311). […] After incubation, fluorescence intensity values of each well at an excitation wavelength of 304 nm, and emission wavelengths of 620 nm and 665 nM were determined in a TF-FRET mode on a microplate reader, and the fluorescence intensity ratio 665/620 of each hole was calculated. […]
On the technique in general: Time-resolved FRET reads energy transfer from a long-lived donor to a nearby acceptor.

A further assay addresses T2, ALK (Homo sapiens, UniProt Q9UM73).
T2 construct: purchased SignalChem A19-11G-10
The assay can be described thus: HTRF KinEASE-TK kinase activity inhibition assay, ALK. The assay is classed as biochemical. Conditions: ATP 1 µM.

The next assay concerns BAF3 LMNA-TRKA^G667C. The assay can be described thus: Cell proliferation assay (CellTiter-Glo), BAF3 LMNA-TRKA G667C. It counts as cell-based. The settings on record: Mus musculus, 72 hours. How it is done: The following method was used to determine the effects of the compounds of the present invention on cell proliferation. BAF3 cells were purchased from National Infrastructure of Cell Line Resource (Beijing Headquarter). For TRKA, BAF3 cells were used to construct […] stable cell lines of BAF3 LMNA-TRKA^WT and BAF3 LMNA-TRKA^G667C.The above […] cell lines were used to determine the inhibition of the compounds on cell activities. The cells were cultured in an RPMI 1640 medium containing 10% fetal bovine serum, 100 U penicillin and 100 µg/mL streptomycin. The cells were cultured in a 5% CO2 incubator at 37°C. The activities of the cells were determined by CellTiter-Glo® Luminescent Cell Viability Assay kit (Promega, article number: G7573).
as §1, with “sample. A final concentration of the compound ranged from 1 µM to 0.15 nM.” for “sample.”

T2 sequence (Q9UM73 19-1620): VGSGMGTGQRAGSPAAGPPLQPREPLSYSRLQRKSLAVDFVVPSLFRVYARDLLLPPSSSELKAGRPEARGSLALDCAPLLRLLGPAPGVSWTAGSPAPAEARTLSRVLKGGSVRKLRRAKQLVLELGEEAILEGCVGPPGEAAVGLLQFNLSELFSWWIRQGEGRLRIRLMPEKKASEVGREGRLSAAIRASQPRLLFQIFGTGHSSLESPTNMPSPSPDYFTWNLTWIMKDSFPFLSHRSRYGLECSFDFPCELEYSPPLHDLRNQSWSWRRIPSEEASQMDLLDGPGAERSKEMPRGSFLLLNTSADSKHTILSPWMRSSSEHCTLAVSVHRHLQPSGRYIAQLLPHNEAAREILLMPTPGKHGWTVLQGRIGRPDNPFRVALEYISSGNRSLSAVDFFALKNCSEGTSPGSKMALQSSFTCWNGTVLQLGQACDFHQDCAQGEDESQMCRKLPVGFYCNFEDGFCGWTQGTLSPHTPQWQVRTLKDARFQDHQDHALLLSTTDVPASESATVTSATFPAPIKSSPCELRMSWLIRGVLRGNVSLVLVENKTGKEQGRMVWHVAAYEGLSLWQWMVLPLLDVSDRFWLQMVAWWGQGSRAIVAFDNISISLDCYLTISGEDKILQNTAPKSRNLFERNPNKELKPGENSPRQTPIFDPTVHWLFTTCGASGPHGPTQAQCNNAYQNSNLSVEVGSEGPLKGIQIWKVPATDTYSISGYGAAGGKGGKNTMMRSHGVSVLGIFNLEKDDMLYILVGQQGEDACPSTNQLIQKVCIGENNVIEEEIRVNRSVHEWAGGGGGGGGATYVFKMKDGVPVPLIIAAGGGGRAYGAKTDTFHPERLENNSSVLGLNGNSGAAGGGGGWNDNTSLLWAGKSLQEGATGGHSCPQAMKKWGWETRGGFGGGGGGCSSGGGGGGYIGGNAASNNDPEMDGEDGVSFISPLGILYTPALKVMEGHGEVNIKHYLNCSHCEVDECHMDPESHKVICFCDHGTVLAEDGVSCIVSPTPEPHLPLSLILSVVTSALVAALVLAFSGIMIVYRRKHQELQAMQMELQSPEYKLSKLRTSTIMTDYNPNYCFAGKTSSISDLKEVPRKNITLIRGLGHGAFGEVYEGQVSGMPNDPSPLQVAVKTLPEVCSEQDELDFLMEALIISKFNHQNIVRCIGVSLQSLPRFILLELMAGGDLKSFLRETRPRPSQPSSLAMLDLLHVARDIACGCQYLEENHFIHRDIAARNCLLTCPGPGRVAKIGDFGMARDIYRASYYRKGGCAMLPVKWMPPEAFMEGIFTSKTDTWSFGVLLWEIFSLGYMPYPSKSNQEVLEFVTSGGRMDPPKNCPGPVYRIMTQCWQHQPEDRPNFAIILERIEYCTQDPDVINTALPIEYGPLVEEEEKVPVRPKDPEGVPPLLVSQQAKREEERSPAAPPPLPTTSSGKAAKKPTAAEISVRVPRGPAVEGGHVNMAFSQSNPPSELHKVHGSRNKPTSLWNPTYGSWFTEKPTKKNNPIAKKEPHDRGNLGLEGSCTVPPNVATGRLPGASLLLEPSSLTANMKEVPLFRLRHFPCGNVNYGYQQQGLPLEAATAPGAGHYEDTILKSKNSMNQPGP
From the text for ALK: The following method was used to determine the inhibition degrees of the compounds of the present invention on the activity of recombinant human ALK kinase in vitro. In this method, HTRF®KinEASE-TK tyrosine kinase kit (article No. 62TK0PEB) of Cisbio company was used, the principle of the kit was based on time-resolved fluorescence resonance energy transfer (TF-FRET), and the inhibition of the compounds on the activity of the ALK kinase was reflected by determining a phosphorylation degree of a biotinylated polypeptide substrate mediated by ALK kinase. […] The recombinant human ALK was purchased from SignalChem (article number was ALK#A19-11G-10).
The experimental flow was briefly described as follows: a test compound was first dissolved in DMSO to prepare a storage solution, and then diluted in gradient with a buffer provided in the kit. A final concentration of the test compound in the reaction system ranged from 1000 nM to 0.004 nM. An ATP Km value concentration of each ALK protein was determined by using an ATP solution diluted in gradient (Sangon Biotech (Shanghai) Co., Ltd., A600311). […] After incubation, fluorescence intensity values of each well at an excitation wavelength of 304 nm, and emission wavelengths of 620 nm and 665 nM were determined in a TF-FRET mode on a microplate reader, and the fluorescence intensity ratio 665/620 of each well was calculated. […]
Method for BAF3 LMNA-TRKA^G595R: The following method was used to determine the effects of the compounds of the present invention on cell proliferation. […] For TRKA, BAF3 LMNA-TRKA^G595R stably transformed cell line was constructed by BAF3 cells. The above cell line was used to determine the inhibition of the compounds on cell activity. […] The cells were cultured in a 5% CO2 incubator at 37°C. The activity of the cells were determined by CellTiter-Glo® Luminescent Cell Viability Assay kit (Promega, article number: G7573).
The experimental methods were operated according to the steps in the kit instruction, and were briefly described as follows: a test compound was first dissolved in DMSO to prepare a storage solution, and then diluted in gradient with the corresponding cell culture medium to prepare a test sample. […] Cells in logarithmic growth phase were inoculated into a 96-well cell culture plate at a suitable density, and the cells were cultured in a 5% CO2 incubator at 37°C overnight. After adding the sample of the test compound, the cells were continuously cultured for 72 hours. After the culture, 50 µL of CellTiter-Glo detection solution was added to each well, shaken for 5 minutes, and then stood for 10 minutes, and the luminescence values of each well were read on the microplate reader using a Luminance mode.

`C[C@H]1Nc2ccn3ncc(c3n2)C(=O)NC[C@@]2(C)Cc3cc(F)cc1c3O2` [Example 8, (3R,11R)-6-fluoro-3,11-dimethyl-10-oxa-2,13,17,1 8,21-pentaazapentacyclo[13.5.2.1^8,11.0^4,9.0^18,22]tric osa-1(21),4,6,8,15(22),16,19-heptaen-14-one]: the IC50 in the assay with BAF3 LMNA-TRKA^G595R worked out at 3.1 nM; in assay [1], 65.5 nM; against ROS1, 0.36 nM; on ALK, 2.02 nM; in the assay with BAF3 LMNA-TRKA^G667C, 77.6 nM.

Regarding `C[C@H]1Nc2ccn3nc(N)c(c3n2)C(=O)NC[C@@]2(C)Cc3cc(F)cc1c3O2` [Example 25, (3R,11R)-16-amino-6-fluoro-3,11-dimethyl-10-oxa-2,13,17,18,21-pentaazapentacyclo[13.5.2.1^8,11.0^4,9. 0^18,22]tricosa-1(21),4,6,8,15(22),16,19-heptaen-14-one], the IC50 in the assay with BAF3 LMNA-TRKA^G595R was 2.2 nM; in assay [1], 52.7 nM; at ROS1 it was 0.84 nM; against ALK, 1.93 nM; in the assay on BAF3 LMNA-TRKA^G667C, 46.7 nM.
